Measured values from ChEMBL document CHEMBL3588806, “Generation of Broad-Spectrum Antifungal Drug Candidates from the Natural Product Compound Aureobasidin A” (ACS Med Chem Lett, 2015).
≈ marks a conversion by molar mass, not a printed value. Starred links: 1 amine or outer side, 2 acyl side, 3 side chain; linkers in the order of their positions; H or OH if unused. Non-standard residues stand in square brackets, D forms with d. Residues, ends and D or L forms follow the SMILES beside them. NMePhe(3-(3-pyridyl)) = CN[C@@H](Cc1cccc(-c2cccnc2)c1)C(=O)O; X1 = CC[C@@H](C)[C@@H](O[*:1])C(=O)[*:2]; Hmp(2R,3S) = CC[C@H](C)[C@@H](O)C(=O)O; NMeVal(β-OH) = CN[C@H](C(=O)O)C(C)(C)O; NMeF = CN[C@@H](Cc1ccccc1)C(=O)O; aIle = CC[C@@H](C)[C@H](N)C(=O)O; NMeV = CN[C@H](C(=O)O)C(C)C

What was measured:
Aspergillus flavus [1] = assay: Antifungal activity against Aspergillus flavus ATCC 64025 by broth dilution method; assay type: functional
Trichophyton rubrum = assay: Antifungal activity against Trichophyton rubrum ATCC MYA-4438 by broth dilution method; assay type: functional
Fusarium oxysporum = assay: Antifungal activity against Fusarium oxysporum ATCC 48112 by broth dilution method; assay type: functional
Aspergillus ochraceus = assay: Antifungal activity against Aspergillus ochraceus ATCC 96919 by broth dilution method; assay type: functional
Clavispora lusitaniae = assay: Antifungal activity against Candida lusitaniae ATCC 66035 by broth dilution method; assay type: functional
Candida tropicalis [2] = assay: Antifungal activity against Candida tropicalis ATCC 750 by broth dilution method; assay type: functional
Aspergillus fumigatus [3] = assay: Antifungal activity against Aspergillus fumigatus ATCC MYA-32626 by broth dilution method; assay type: functional
Pichia kudriavzevii [4] = assay: Antifungal activity against Candida krusei ATCC 14243 by broth dilution method; assay type: functional
Candida albicans [5] = assay: Antifungal activity against Candida albicans ATCC 10231 by broth dilution method; assay type: functional
Aspergillus nidulans = assay: Antifungal activity against Emericella nidulans ATCC 96921 by broth dilution method; assay type: functional
Aspergillus fumigatus [6] = assay: Antifungal activity against Aspergillus fumigatus ATCC 20435 by broth dilution method; assay type: functional
Candida tropicalis [7] = assay: Antifungal activity against Candida tropicalis ATCC 90874 by broth dilution method; assay type: functional
Candida albicans [8] = assay: Antifungal activity against Candida albicans ATCC 204276 by broth dilution method; assay type: functional
[9] = system: Trichophyton mentagrophytes; assay: Antifungal activity against Trichophyton mentagrophytes ATCC MYA-4439 by broth dilution method; assay type: functional
Aspergillus flavus [10] = assay: Antifungal activity against Aspergillus flavus ATCC 22546 by broth dilution method; assay type: functional
Sporothrix schenckii = assay: Antifungal activity against Sporothrix schenckii ATCC 14284 by broth dilution method; assay type: functional
Aspergillus flavus [11] = assay: Antifungal activity against Aspergillus flavus ATCC 204304 by broth dilution method; assay type: functional
Nakaseomyces glabratus = assay: Antifungal activity against Candida glabrata ATCC 90030 by broth dilution method; assay type: functional
Aspergillus fumigatus [12] = assay: Antifungal activity against Aspergillus fumigatus by broth dilution method; assay type: functional
[13] = system: Meyerozyma guilliermondii; assay: Antifungal activity against Candida guilliermondii ATCC 34134 by broth dilution method; assay type: functional
Candida albicans [14] = assay: Antifungal activity against Candida albicans ATCC 24433 by broth dilution method; assay type: functional
[15] = system: Trichophyton mentagrophytes; assay: Antifungal activity against Trichophyton mentagrophytes ATCC 28185 by broth dilution method; assay type: functional
Candida parapsilosis [16] = assay: Antifungal activity against Candida parapsilosis ATCC 22019 by broth dilution method; assay type: functional; details: Lodderomyces parapsilosis
Aspergillus niger [17] = assay: Antifungal activity against Aspergillus niger ATCC 16888 by broth dilution method; assay type: functional
[18] = Ratio of MIC for Aspergillus fumigatus to MIC for Candida albicans; assay type: functional
Rhizopus arrhizus = assay: Antifungal activity against Rhizopus oryzae ATCC 11886 by broth dilution method; assay type: functional
Candida albicans [19] = assay: Antifungal activity against Candida albicans ATCC 90029 by broth dilution method; assay type: functional
Candida albicans [20] = assay: Antifungal activity against Candida albicans by broth dilution method; assay type: functional
Candida albicans [21] = assay: Antifungal activity against Candida albicans ATCC MYA-2732 by broth dilution method; assay type: functional
Cryptococcus neoformans = assay: Antifungal activity against Cryptococcus neoformans ATCC […] by broth dilution method; assay type: functional
Pichia kudriavzevii [22] = assay: Antifungal activity against Issatchenkia orientalis ATCC 6258 by broth dilution method; assay type: functional
Aspergillus niger [23] = assay: Antifungal activity against Aspergillus niger ATCC 64028 by broth dilution method; assay type: functional
Aspergillus clavatus = assay: Antifungal activity against Aspergillus clavatus ATCC 10058 by broth dilution method; assay type: functional
Candida albicans [24] = assay: Antifungal activity against Candida albicans ATCC 90028 by broth dilution method; assay type: functional
Saccharomyces cerevisiae = assay: Antifungal activity against Saccharomyces cerevisiae ATCC 7754 by broth dilution method; assay type: functional
Aspergillus candidus = assay: Antifungal activity against Aspergillus candidus ATCC 13686 by broth dilution method; assay type: functional
Candida parapsilosis [25] = assay: Antifungal activity against Candida parapsilosis ATCC 90018 by broth dilution method; assay type: functional; details: Lodderomyces parapsilosis
[26] = Time dependent inhibition of Candida albicans ATCC 38247 membrane inositol phosphorylceramide synthase using ceramide as substrate

Row | SMILES | MIC (Aspergillus flavus [1]) [µg/mL] | MIC (Trichophyton rubrum) [µg/mL] | MIC (Fusarium oxysporum) [µg/mL] | MIC (Aspergillus ochraceus) [µg/mL] | MIC (Clavispora lusitaniae) [µg/mL] | MIC (Candida tropicalis [2]) [µg/mL] | MIC (Aspergillus fumigatus [3]) [µg/mL] | MIC (Pichia kudriavzevii [4]) [µg/mL] | MIC (Candida albicans [5]) [µg/mL] | MIC (Aspergillus nidulans) [µg/mL] | MIC (Aspergillus fumigatus [6]) [µg/mL] | MIC (Candida tropicalis [7]) [µg/mL] | MIC (Candida albicans [8]) [µg/mL] | MIC [9] [µg/mL] | MIC (Aspergillus flavus [10]) [µg/mL] | MIC (Sporothrix schenckii) [µg/mL] | MIC (Aspergillus flavus [11]) [µg/mL] | MIC (Nakaseomyces glabratus) [µg/mL] | MIC (Aspergillus fumigatus [12]) [µg/mL] | MIC [13] [µg/mL] | also measured
1 | CC[C@H](C)[C@@H]1NC(=O)[C@@H]2CCCN2C(=O)[C@H](Cc2cccc(-c3cccnc3)c2)N(C)C(=O)[C@H](Cc2ccccc2)NC(=O)[C@H](C(C)C)N(C)C(=O)[C@@H]([C@@H](C)CC)OC(=O)[C@H](C(C)(C)O)N(C)C(=O)[C@H](CC(C)C)NC(=O)[C@H](C(C)C)N(C)C1=O (cyclo(F[NMePhe(3-(3-pyridyl))]PI[NMeV]L[NMeVal(β-OH)][Hmp(2R,3S)][NMeV])) | 1 (≈ 0.849 µM) | 2 (≈ 1.7 µM) | > 64 | 0.25 (≈ 0.212 µM) | 0.125 (≈ 0.106 µM) | 0.03 (≈ 0.0255 µM) | 2 (≈ 1.7 µM) | 0.06 (≈ 0.0509 µM) | 1 (≈ 0.849 µM) | 0.125 (≈ 0.106 µM) | 1 (≈ 0.849 µM) | 0.015 (≈ 0.0127 µM) | 0.03 (≈ 0.0255 µM) | 0.5 (≈ 0.424 µM) | 2 (≈ 1.7 µM) | > 64 | 1 (≈ 0.849 µM) | 0.03 (≈ 0.0255 µM) | < 0.94 | 0.03 (≈ 0.0255 µM) | MIC (Candida albicans [14]): 0.125 µg/mL (≈ 0.106 µM); MIC [15]: 1 µg/mL (≈ 0.849 µM); MIC (Candida parapsilosis [16]): 0.06 µg/mL (≈ 0.0509 µM); MIC (Aspergillus niger [17]): 0.125 µg/mL (≈ 0.106 µM); Ratio [18]: > 10; MIC (Rhizopus arrhizus): > 64 µg/mL; MIC (Candida albicans [19]): 0.5 µg/mL (≈ 0.424 µM); MIC (Candida albicans [20]): < 0.05 µg/mL; MIC (Candida albicans [21]): 0.03 µg/mL (≈ 0.0255 µM); MIC (Cryptococcus neoformans): 0.03 µg/mL (≈ 0.0255 µM); MIC (Pichia kudriavzevii [22]): 0.06 µg/mL (≈ 0.0509 µM); MIC (Aspergillus niger [23]): 0.03 µg/mL (≈ 0.0255 µM); MIC (Aspergillus clavatus): 0.03 µg/mL (≈ 0.0255 µM); MIC (Candida albicans [24]): 0.015 µg/mL (≈ 0.0127 µM); MIC (Saccharomyces cerevisiae): 0.03 µg/mL (≈ 0.0255 µM); MIC (Aspergillus candidus): 0.008 µg/mL (≈ 0.00679 µM); MIC (Candida parapsilosis [25]): 0.03 µg/mL (≈ 0.0255 µM)
2 | C[C@@H]1[C@H](O)[C@@H](C)/C=C/C=C/C=C/C=C/C=C/C=C/C=C/[C@H](O[C@@H]2O[C@H](C)[C@@H](O)[C@H](N)[C@@H]2O)C[C@@H]2O[C@](O)(C[C@@H](O)C[C@@H](O)[C@H](O)CC[C@@H](O)C[C@@H](O)CC(=O)O[C@H]1C)C[C@H](O)[C@H]2C(=O)O [AMPHOTERICIN B] | 0.5 (≈ 0.541 µM) | 0.03 (≈ 0.0325 µM) | 1 (≈ 1.08 µM) | 0.25 (≈ 0.271 µM) | 0.015 (≈ 0.0162 µM) | 0.06 (≈ 0.0649 µM) | 0.25 (≈ 0.271 µM) | 0.125 (≈ 0.135 µM) | 0.03 (≈ 0.0325 µM) | 1 (≈ 1.08 µM) | 0.25 (≈ 0.271 µM) | 0.06 (≈ 0.0649 µM) | 0.06 (≈ 0.0649 µM) | 0.06 (≈ 0.0649 µM) | 0.25 (≈ 0.271 µM) | 0.5 (≈ 0.541 µM) | 0.25 (≈ 0.271 µM) | 0.03 (≈ 0.0325 µM) | – | 0.008 (≈ 0.00866 µM) | MIC (Candida albicans [14]): 0.03 µg/mL (≈ 0.0325 µM); MIC [15]: 0.06 µg/mL (≈ 0.0649 µM); MIC (Candida parapsilosis [16]): 0.125 µg/mL (≈ 0.135 µM); MIC (Aspergillus niger [17]): 0.03 µg/mL (≈ 0.0325 µM); MIC (Rhizopus arrhizus): 0.03 µg/mL (≈ 0.0325 µM); MIC (Candida albicans [19]): 0.03 µg/mL (≈ 0.0325 µM); MIC (Candida albicans [21]): 0.06 µg/mL (≈ 0.0649 µM); MIC (Cryptococcus neoformans): 0.015 µg/mL (≈ 0.0162 µM); MIC (Pichia kudriavzevii [22]): 0.125 µg/mL (≈ 0.135 µM); MIC (Aspergillus niger [23]): 0.015 µg/mL (≈ 0.0162 µM); MIC (Aspergillus clavatus): 0.004 µg/mL (≈ 0.00433 µM); MIC (Candida albicans [24]): 0.03 µg/mL (≈ 0.0325 µM); MIC (Saccharomyces cerevisiae): 0.06 µg/mL (≈ 0.0649 µM); MIC (Aspergillus candidus): 0.03 µg/mL (≈ 0.0325 µM); MIC (Candida parapsilosis [25]): 0.06 µg/mL (≈ 0.0649 µM)
3 | CC[C@@H](C)[C@@H]1NC(=O)[C@@H]2CCCN2C(=O)[C@H](Cc2ccccc2)N(C)C(=O)[C@H](Cc2ccccc2)NC(=O)[C@H](C(C)C)N(C)C(=O)[C@@H]([C@H](C)CC)OC(=O)[C@H](C(C)(C)O)N(C)C(=O)[C@H](CC(C)C)NC(=O)[C@H](C(C)C)N(C)C1=O [AUREOBASIDIN A] (cyclo(F[NMeF]P[aIle][NMeV]L[NMeVal(β-OH)][X1][NMeV])) | – | – | – | – | – | – | – | – | – | – | – | – | – | – | – | – | – | – | > 25 | – | Ki [26]: 0.2 nM; MIC (Candida albicans [20]): < 0.05 µg/mL
